This experiment relates to GUMC-403. In words: viability at highest tested concentration (max response) relative to DMSO (% of DMSO control); higher = less cytotoxic. The following applies: library / dose series: MIPE library, 11-point 1:3 dilution, 48 h. The method, boiled down:
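Conditionally reprogrammed GUMC-403 papilloma cells from a patient were plated at 700/well in 5 μL F + Y medium in 1536-well plates and left overnight at 37 °C. A pin tool then added 23 nL of library compounds as an 11-point 1:3 series, for 48 h. CellTiter-Glo luminescence was read on a ViewLux and scaled with vehicle wells set to 100% and empty wells to 0%. Each value gives viability at the highest tested concentration relative to vehicle control.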

Under “top concentration 46.1 µM”, `Cc1ccc(C(=O)Nc2cccc(C(F)(F)F)c2)cc1-c1ccc2nc(NCCN3CCOCC3)ncc2c1` came in with a viability of 55.5.

Take `Cc1cnn(C)c1C(=O)Nc1cc(Nc2ccc3c(/C=C/c4ccccn4)n[nH]c3c2)ccc1F`: the viability (top concentration 46.1 µM) amounted to 125.

`CCCCCCCCCCCC(CC1OC(=O)C1CCCCCC)OC(=O)C(CC(C)C)NC=O` (stereo not drawn): under “top concentration 46.1 µM”, the viability was 101.

Under “top concentration 46.1 µM”, `COc1cc(C(=O)NS(=O)(=O)c2ccccc2C)ccc1Cc1cn(C)c2ccc(NC(=O)OC3CCCC3)cc12` registered a viability of 28.5.

In turn, `NC[C@@H]1O[C@H](O[C@H]2[C@@H](O)[C@H](O[C@@H]3[C@@H](O)[C@H](N)C[C@H](N)[C@H]3O[C@H]3O[C@H](CN)[C@@H](O)[C@H](O)[C@H]3N)O[C@@H]2CO)[C@H](N)[C@@H](O)[C@@H]1O.O=S(=O)(O)O.O=S(=O)(O)O.O=S(=O)(O)O` displayed a viability (top concentration 46.1 µM) of 119.

As to `O=C1NC(=O)/C(=C\c2ccc(-c3ccc(F)cc3)o2)S1`, under “top concentration 46.1 µM”, the viability came out at 106.

`Cc1nccn1CC1CCc2c(c3ccccc3n2C)C1=O` (stereo not drawn) gave a viability (top concentration 46.1 µM) of 103.

As for `CNC[C@H](O)[C@@H](O)[C@H](O)[C@H](O)CO`, the viability (top concentration 46.1 µM) came to 136.

`O=C(Nc1ccccc1Br)N[C@@H]1CCN(c2ccc(C(F)(F)F)cn2)C1` gave a viability (top concentration 46.1 µM) of 114.

`O=C(Nc1ccccc1)Nc1ccc(-c2ccc(C(=O)[C@@H]3CCC[C@H]3C(=O)O)cc2)cc1` registered a viability (top concentration 46.1 µM) of 128.

Consider `O=C(O)/C=C/c1ccc(Cn2ccnc2)cc1`, for which the viability (top concentration 46.1 µM) is 124.

In turn, `NC(=O)C1CCCc2c1[nH]c1ccc(Cl)cc21` (stereo not drawn) showed a viability (top concentration 46.1 µM) of 96.

`COc1ccc(N(C(=O)Oc2c(C)cccc2C)c2ccnc(Nc3ccc(N4CCN(C)CC4)cc3)n2)c(OC)c1` yielded a viability (top concentration 46.1 µM) of 83.2.

`CC(C)=CCC/C(C)=C/CC/C(C)=C/CC/C(C)=C/CC/C(C)=C/CC/C(C)=C/CC/C(C)=C/CC/C(C)=C/CC/C(C)=C/CO` came in with a viability (top concentration 46.1 µM) of 104.

Where the note is “top concentration 46.1 µM”, `Cl.c1cnc2cc3c(cc2n1)C1CNCC3C1` displayed a viability of 107.

Under “top concentration 46.1 µM”, `CN1C(=O)C(Cc2c[nH]c3ccccc23)NC1=S` (stereo not drawn) showed a viability of 102.

Turning to `Clc1ccc2c(N3CCN(CCCN4CCN(c5ccnc6cc(Cl)ccc56)CC4)CC3)ccnc2c1`, the viability (top concentration 23 µM) came to 119.

As for `O=C(/C=C/c1ccc(O)cc1)c1ccc(O)cc1O`, the viability (top concentration 46.1 µM) was determined as 77.

In the case of `CCOC(=O)c1ccc(C#Cc2ccc3c(c2)C(C)(C)CCS3)nc1`, where the note is “top concentration 46.1 µM”, the viability was 118.

Where the note is “top concentration 46.1 µM”, `NC1(c2ccc(-c3nc4ccn5c(=O)[nH]nc5c4cc3-c3ccccc3)cc2)CCC1` yielded a viability of 90.4.

`O=C(O)CSCC(=O)NC1CCSC1=O` (stereo not drawn) registered a viability (top concentration 46.1 µM) of 139.

Regarding `Clc1ccc2ncc(-c3cccc(NC4CNC4)n3)n2c1`, the viability (top concentration 46.1 µM) turned out to be 124.

Turning to `O=c1oc2c(O)c(O)cc3c(=O)oc4c(O)c(O)cc1c4c23`, where the note is “top concentration 46.1 µM”, the viability stood at 143.

On to `C[C@@H]1C[C@@H]([C@H](O)CC2CC(=O)NC(=O)C2)C(=O)[C@@H](C)C1`, for which the viability (top concentration 46.1 µM) was found to be 89.5.

The compound `CCCNC(=O)[C@H]1O[C@@H]1C(=O)N[C@H](C(=O)N1CCC[C@H]1C(=O)OC)C(C)CC` (stereo partly drawn) showed a viability (top concentration 46.1 µM) of 109.

Turning to `Cc1c(-c2cccc3c(CCCOc4cccc5ccccc45)c(C(=O)O)n(Cc4cccnc4)c23)c(COc2ccc(N3CCN([S+](=O)([O-])N(C)C)CC3)cc2)nn1C`, the viability (top concentration 46.1 µM) was 90.8.

`CC(=O)Nc1ccc(O)cc1`: the viability (top concentration 46.1 µM) came to 123.

As to `CN[C@H](CC(C)C)C(=O)N[C@H]1C(=O)N[C@@H](CC(N)=O)C(=O)N[C@H]2C(=O)N[C@H]3C(=O)N[C@H](C(=O)N[C@H](C(=O)O)c4cc(O)cc(O)c4-c4cc3ccc4O)[C@H](O)c3ccc(c(Cl)c3)Oc3cc2cc(c3O[C@@H]2O[C@H](CO)[C@@H](O)[C@H](O)[C@H]2O[C@H]2C[C@](C)(N)[C@H](O)[C@H](C)O2)Oc2ccc(cc2Cl)[C@H]1O`, under “top concentration 46.1 µM”, the viability was found to be 119.

Turning to `CC(O)(C[S+](=O)([O-])c1ccc(F)cc1)C(=O)Nc1ccc(C#N)c(C(F)(F)F)c1` (stereo not drawn), the viability (top concentration 46.1 µM) is 114.

In turn, `CC(C)C(=O)Nc1ncc(-c2cc(C(F)F)nn2-c2c(Cl)cccc2Cl)s1` had a viability (top concentration 46.1 µM) of 90.8.

For `CCOC(=O)C(C)OC1=CC=CC2=C1\C=C/N(CC(=O)NC3=CC=C4OCCOC4=C3)C2=O` (stereo not drawn), the viability (top concentration 46.1 µM) is 105.

For the compound `NC(=O)c1ccc2[nH]ccc2c1`, the viability (top concentration 46.1 µM) was found to be 122.

Consider `COc1ccc2c(c1)CC[C@@H](CN(C)CC(=O)O)[C@H]2c1ccccc1`, for which the viability (top concentration 46.1 µM) turned out to be 78.3.

Compound `CC(=O)NCCC(=O)N[C@@H](CCC(N)=O)C(=O)N[C@@H](CO)C(=O)N[C@@H](CCC(N)=O)C(=O)N[C@@H](CCC(N)=O)C(=O)N[C@H](C(=O)N[C@@H](Cc1ccccc1)C(=O)N[C@]1(C)CCCCCC/C=C\CCC[C@@](C)(C(=O)N[C@@H](CCC(N)=O)C(=O)N[C@@H](CC(N)=O)C(N)=O)NC(=O)[C@H](CC(C)C)NC(=O)[C@H](CC(C)C)NC(=O)[C@@H](CCCNC(=N)N)NC(=O)[C@H](Cc2c[nH]c3ccccc23)NC(=O)[C@H](CC(C)C)NC(=O)[C@H](CC(N)=O)NC1=O)[C@H](C)O` registered a viability (top concentration 46.1 µM) of 99.6.

On to `CCn1c(C(=O)N(C2CC2)C2CC2)cc2c3c(ncn3C)c(Nc3cc(C)n(C)n3)nc21`, for which the viability (top concentration 46.1 µM) came to 118.

In turn, `CN(C)[S+](=O)([O-])c1ccc2c(c1)C(=Cc1cc3c([nH]1)CCCC3)C(=O)N2` returned a viability (top concentration 46.1 µM) of 122.

Consider `C[C@]12C[C@H](O)[C@H]3[C@@H](CC\C4=C\C(=O)\C=C/[C@]34C)[C@@H]1CC[C@]2(O)C(=O)CO`, for which the viability (top concentration 46.1 µM) came to 118.

`CN(C)CCCNC(=O)c1ccc(-c2cc(O)c3ncccc3c2)cc1` yielded a viability (top concentration 46.1 µM) of 120.

`CCN(CC)CCCC(C)Nc1ccnc2cc(Cl)ccc12` (stereo not drawn) showed a viability (top concentration 46.1 µM) of 103.

For `C1CN\2C[C@@H](\N=C2S1)C3=CC=CC=C3`, under “top concentration 46.1 µM”, the viability worked out at 125.

As for `C[C@H]1COC/2=C1/C(=O)C(=O)C3=C4CCCC(C)(C)C4=CC=C23`, under “top concentration 46.1 µM”, the viability stood at 137.

Take `c1ccc(CCCN2CCN(CCOC(c3ccccc3)c3ccccc3)CC2)cc1`: the viability (top concentration 46.1 µM) was found to be 88.7.

With `COc1ccc2cc([C@H](C)C(=O)O)ccc2c1`, the viability (top concentration 46.1 µM) was 97.3.

Consider `O=C(O)Cc1cccc(OCCCN(Cc2cccc(C(F)(F)F)c2Cl)CC(c2ccccc2)c2ccccc2)c1`, for which the viability (top concentration 46.1 µM) amounted to 136.

For `C=C1/C(=C/C=C2\CCCC3(C)[C@@H]([C@H](C)/C=C/C=C/C(O)(CC)CC)CC[C@@H]23)C[C@@H](O)C[C@@H]1O` (stereo partly drawn), where the note is “top concentration 46.1 µM”, the viability was found to be 148.

`Cc1ccc([S+](=O)([O-])OCC(=O)Nc2ccc(C(=O)O)c(O)c2)cc1`: where the note is “top concentration 46.1 µM”, the viability stood at 91.4.

Under “top concentration 46.1 µM”, `N/C1=N/C(=O)C/2=C(NC[C@@H](CNC3=CC=C(C=C3)C(=O)N[C@@H](CCC([O-])=O)C([O-])=O)N2C=O)\N1` returned a viability of 132.

Regarding `CN(C)CCN(C)CCc1ccc(Cl)c(Cl)c1`, the viability (top concentration 46.1 µM) was 124.

For `CCCCOCCOc1nc(-c2ccc(C(=O)O)c(F)c2)sc1C`, for the setting “top concentration 46.1 µM”, the viability is 105.

With `CC1=C(/C=C/C(C)=C/C=C/C(C)=C/C(=O)O)C(C)(C)CCC1`, the viability (top concentration 46.1 µM) stood at 86.6.

Compound `CC(=O)O[C@H]1C(=O)[C@]2(C)[C@@H](O)C[C@H]3OC[C@@]3(OC(C)=O)C2[C@H](OC(=O)C4=CC=CC=C4)[C@]5(O)C[C@H](OC(=O)[C@H](O)[C@@H](NC(=O)C6=CC=CC=C6)C7=CC=CC=C7)\C(=C1/C5(C)C)C` (stereo partly drawn) registered a viability (top concentration 46.1 µM) of 97.8.

`O=P1(N(CCCl)CCCl)NCCCO1` (stereo not drawn) returned a viability (top concentration 46.1 µM) of 116.

As for `C[C@]12CC[C@H]3[C@@H](CCC/4=C/C(=O)CC[C@]34C)[C@@H]1CC[C@@H]2OC(=O)CCC5CCCC5`, where the note is “top concentration 46.1 µM”, the viability came out at 102.

In the case of `Cc1cc2c(C(C)C)c(O)c(O)c(C=O)c2c(O)c1-c1c(C)cc2c(C(C)C)c(O)c(O)c(C=O)c2c1O`, the viability (top concentration 46.1 µM) worked out at 77.1.

Under “top concentration 46.1 µM”, `O=C(O)C1(Cc2cccc(Nc3nccs3)n2)CCC(Oc2cccc(Cl)c2F)CC1` (stereo not drawn) showed a viability of 115.

For `CC(=O)C1=C(O)C2(C)C(=CC1=O)Oc1c(C(C)=O)c(O)c(C)c(O)c12` (stereo not drawn), under “top concentration 46.1 µM”, the viability was determined as 143.

Compound `CCC(CCCC)COC(=O)C(\C#N)=C(\c1ccccc1)c2ccccc2` (stereo not drawn) yielded a viability (top concentration 46.1 µM) of 113.

Under “top concentration 46.1 µM”, `O=C1Nc2cc(Br)ccc2/C1=C1/Nc2ccccc2/C1=N\O` came in with a viability of 31.3.

Where the note is “top concentration 46.1 µM”, `CCOc1cc(/C=C2/C(=O)N(c3ccccc3)N=C2C)cc(Cl)c1OCC(=O)OC` yielded a viability of 99.2.

Consider `C[C@](O)(CS(=O)(=O)c1ccc(F)cc1)C(=O)Nc1ccc(C#N)c(C(F)(F)F)c1`, for which the viability (top concentration 46.1 µM) was found to be 128.

Take `CC(C)=CCC/C(C)=C/CC/C(C)=C/CSc1ccccc1C(=O)O`: the viability (top concentration 46.1 µM) was 72.

Where the note is “top concentration 46.1 µM”, `Cc1ccc2c(=O)c3cccc(CC(=O)O)c3oc2c1C` returned a viability of 6.71.

In the case of `CCCOc1ccc(C(=O)OCCN(CC)CC)cc1N`, the viability (top concentration 46.1 µM) was 115.

In the case of `CC[C@@H]([C@H](C)O)n1ncn(-c2ccc(N3CCN(c4ccc(OCC5CO[C@@](Cn6cncn6)(c6ccc(F)cc6F)C5)cc4)CC3)cc2)c1=O` (stereo partly drawn), the viability (top concentration 46.1 µM) is 101.

For `C/C=C/C[C@@H](C)C(=O)[C@H]1C(=O)N[C@@H](C(C)C)C(=O)N(C)CC(=O)N(C)[C@@H](CC(C)C)C(=O)N[C@@H](C(C)C)C(=O)N(C)[C@@H](CC(C)C)C(=O)N[C@@H](C)C(=O)N[C@H](C)C(=O)N(C)[C@@H](CC(C)C)C(=O)N(C)[C@@H](CC(C)C)C(=O)N(C)[C@@H](C(C)C)C(=O)N1C`, the viability (top concentration 46.1 µM) came out at 90.6.

Where the note is “top concentration 46.1 µM”, `ClC1=CC(=CC=C1)N2CCN(CCCN3\N=C4\C=C/C=C\N4C3=O)CC2` came in with a viability of 103.

Consider `O=C(c1ccc(F)c(F)c1Nc1ccc(I)cc1F)N1CC(O)([C@@H]2CCCCN2)C1`, for which the viability (top concentration 46.1 µM) amounted to 52.2.

Turning to `OCCC#Cc1nc(-c2ccc(F)cc2)c(-c2ccncc2)n1CCCc1ccccc1`, the viability (top concentration 46.1 µM) was determined as 64.
